Consider 1 molecule from patent US9133434B1, “Grass endophyte” (Cropmark Seeds Ltd., priority 2012, dated 2015).

Test [1] concerns Neotyphodium uncinatum, var. U2. As to the kind of experiment: Colony: resistance to benomyl on growth (PDA plates with benomyl). The class given is cell-based. The conditions noted are these: benomyl 1, 5, 10, 50 and 100 ppm in PDA, recorded after 4 weeks; scale absent or very weak / weak / medium / strong / very strong. Here is the method: Neotyphodium uncinatum, var. U2 was isolated from line FP102 of Festuca pratensis (Meadow fescue). Line FP102 originally came from Norway in 1999. Characteristics for Neotyphodium uncinatum, var. U2 were determined and compared with other varieties. For these tests, the endophytic fungus isolated was cultured on 1.5% (w/v) potato dextrose agar at 20° C. in the dark (Christensen M J, Latch G C M, Tapper S A 1991: Variation within isolates of Acremonium endophytes from perennial ryegrasses. Mycol. Res. 95: 918-923). Length of cultivation was generally standardized at 4 weeks, but may be varied according to the isolate. Five plates of each strain were grown.
(§1) Plates of PDA containing different concentrations of the fungicide benomyl were prepared as outlined by Christensen et al. (1991). Benlate(Methyl[1-[(butylamino)carbonyl]-1H-benzimidazol-2-yl]carbamate) (50% WP) was added to PDA prior to sterilization. Concentrations of benomyl were adjusted to 1, 5, 10, 50 and 100 ppm. Five duplicate plates were inoculated with a colony plug.

The subject of test [2] is Neotyphodium uncinatum, var.UNC1. Briefly: Effect of benomyl on growth, comparison of varieties. It counts as cell-based. The conditions noted are these: comparison of the two varieties. Here is the method:
as §1
The two varieties were similar in tested characteristics of colony sporulation, colony sectoring, colony color (upper surface), colony shape, colony immersion or margin in agar, colony texture, aerial mycelium density and type, and effect of benomyl on growth. The two varieties differed in […] and rate of growth.

Consider `CCCCNC(=O)n1c(NC(=O)OC)nc2ccccc21` [benomyl, Methyl[1-[(butylamino)carbonyl]-1H-benzimidazol-2-yl]carbamate], for which the “Colony: resistance to benomyl on growth” value in test [1] is “strong”. The “effect of benomyl on growth, var.UNC1 compared with var. U2” value in test [2] is “similar”.
